What was measured:
BT-549 = assay: Percentage growth inhibition of in vitro subpanel tumor cell lines; type: cell-based; settings: Homo sapiens; 0.01 mM; BT-549, Breast Cancer; read-out: Percentage growth inhibition (GI %)
Description: (§1) The anticancer activity of 4-((2-(2-(2-(4-hydroxyphenyl)-4,5-diphenyl-1H-imidazol-1-yl)acetyl)hydrazono)methyl)benzoic acid was assessed against leukemia, non-small cell lung cancer, colon cancer, central nervous system (CNS) cancer, melanoma, ovarian cancer, renal cancer, prostate cancer, and breast cancer.
(§2) Percentage growth inhibition (GI %) of in vitro subpanel tumor cell lines at 0.01 mM concentration for compound 4-((2-(2-(2-(4-hydroxyphenyl)-4,5-diphenyl-1H-imidazol-1-yl)acetyl)hydrazono)methyl)benzoic acid (Labeled as AE21 in the table) can be seen in Table 1 below.

NCI-H460 = assay: as above; type: cell-based; settings: Homo sapiens; 0.01 mM; NCI-H460, Non-Small Cell Lung Cancer; read-out: Percentage growth inhibition (GI %)
Description: as §1, §2

SK-MEL-5 = assay: as above; type: cell-based; settings: Homo sapiens; 0.01 mM; SK-MEL-5, Melanoma; read-out: Percentage growth inhibition (GI %)
Description: as §1, §2

NCI-H23 = assay: as above; type: cell-based; settings: Homo sapiens; 0.01 mM; NCI-H23, Non-Small Cell Lung Cancer; read-out: Percentage growth inhibition (GI %)
Description: as §1, §2

EKVX = assay: as above; type: cell-based; settings: Homo sapiens, 0.01 mM, Non-Small Cell Lung Cancer, read-out: Percentage growth inhibition (GI %)
Description: as §1, §2

KM12 = assay: as above; type: cell-based; settings: Homo sapiens; 0.01 mM; KM12, Colon Cancer; read-out: Percentage growth inhibition (GI %)
Description: as §1, §2

SF-268 = assay: as above; type: cell-based; settings: Homo sapiens; 0.01 mM; SF-268, CNS Cancer; read-out: Percentage growth inhibition (GI %)
Description: as §1, §2

T-47D = assay: as above; type: cell-based; settings: Homo sapiens, T47D, 0.01 mM, Breast Cancer, read-out: Percentage growth inhibition (GI %)
Description: as §1, §2

HCT-15 = assay: as above; type: cell-based; settings: Homo sapiens; 0.01 mM; HCT-15, Colon Cancer; read-out: Percentage growth inhibition (GI %)
Description: as §1, §2

RPMI-8226 = assay: as above; type: cell-based; settings: Homo sapiens; 0.01 mM; RPMI-8226, Leukemia; read-out: Percentage growth inhibition (GI %)
Description: as §1, §2

HL-60(TB) = assay: as above; type: cell-based; settings: Homo sapiens, 0.01 mM, Leukemia, read-out: Percentage growth inhibition (GI %)
Description: as §1, §2

HT29 = assay: as above; type: cell-based; settings: Homo sapiens, HT-29; 0.01 mM; HT29, Colon Cancer; read-out: Percentage growth inhibition (GI %)
Description: as §1, §2

MCF7 = assay: as above; type: cell-based; settings: Homo sapiens; 0.01 mM; MCF7, Breast Cancer; read-out: Percentage growth inhibition (GI %)
Description: as §1, §2

OVCAR-8 = assay: as above; type: cell-based; settings: Homo sapiens; 0.01 mM; OVCAR-8, Ovarian Cancer; read-out: Percentage growth inhibition (GI %)
Description: as §1, §2

PC-3 = assay: as above; type: cell-based; settings: Homo sapiens; 0.01 mM; PC-3, Prostate Cancer; read-out: Percentage growth inhibition (GI %)
Description: as §1, §2

UACC-257 = assay: as above; type: cell-based; settings: Homo sapiens; 0.01 mM; UACC-257, Melanoma; read-out: Percentage growth inhibition (GI %)
Description: as §1, §2

SF-295 = assay: as above; type: cell-based; settings: Homo sapiens; 0.01 mM; SF-295, CNS Cancer; read-out: Percentage growth inhibition (GI %)
Description: as §1, §2

SN12C = assay: as above; type: cell-based; settings: Homo sapiens, 0.01 mM, Renal Cancer, read-out: Percentage growth inhibition (GI %)
Description: as §1, §2

MOLT-4 = assay: as above; type: cell-based; settings: Homo sapiens; 0.01 mM; MOLT-4, Leukemia; read-out: Percentage growth inhibition (GI %)
Description: as §1, §2

SNB-75 = assay: as above; type: cell-based; settings: Homo sapiens; 0.01 mM; SNB-75, CNS Cancer; read-out: Percentage growth inhibition (GI %)
Description: as §1, §2

CAKI-1 = assay: as above; type: cell-based; settings: Homo sapiens; 0.01 mM; CAKI-1, Renal Cancer; read-out: Percentage growth inhibition (GI %)
Description: as §1, §2

ACHN = assay: as above; type: cell-based; settings: Homo sapiens, 0.01 mM, Renal Cancer, read-out: Percentage growth inhibition (GI %)
Description: as §1, §2

A549/ATCC = assay: as above; type: cell-based; settings: Homo sapiens, 0.01 mM, Non-Small Cell Lung Cancer, read-out: Percentage growth inhibition (GI %)
Description: as §1, §2

NCI/ADR-RES = assay: as above; type: cell-based; settings: Homo sapiens, 0.01 mM, Ovarian Cancer, read-out: Percentage growth inhibition (GI %)
Description: as §1, §2

HS 578T = assay: as above; type: cell-based; settings: Homo sapiens, 0.01 mM, Breast Cancer, read-out: Percentage growth inhibition (GI %)
Description: as §1, §2

LOX IMVI = assay: as above; type: cell-based; settings: Homo sapiens, 0.01 mM, Melanoma, read-out: Percentage growth inhibition (GI %)
Description: as §1, §2

OVCAR-4 = assay: as above; type: cell-based; settings: Homo sapiens; 0.01 mM; OVCAR-4, Ovarian Cancer; read-out: Percentage growth inhibition (GI %)
Description: as §1, §2

MDA-MB-435 = assay: as above; type: cell-based; settings: Homo sapiens; 0.01 mM; MDA-MB-435, Melanoma; read-out: Percentage growth inhibition (GI %)
Description: as §1, §2

SF-539 = assay: as above; type: cell-based; settings: Homo sapiens; 0.01 mM; SF-539, CNS Cancer; read-out: Percentage growth inhibition (GI %)
Description: as §1, §2

SW-620 = assay: as above; type: cell-based; settings: Homo sapiens; 0.01 mM; SW-620, Colon Cancer; read-out: Percentage growth inhibition (GI %)
Description: as §1, §2

UO-31 = assay: as above; type: cell-based; settings: Homo sapiens; 0.01 mM; UO-31, Renal Cancer; read-out: Percentage growth inhibition (GI %)
Description: as §1, §2

CCRF-CEM = assay: as above; type: cell-based; settings: Homo sapiens, 0.01 mM, Leukemia, read-out: Percentage growth inhibition (GI %)
Description: as §1, §2

DU-145 = assay: as above; type: cell-based; settings: Homo sapiens; 0.01 mM; DU-145, Prostate Cancer; read-out: Percentage growth inhibition (GI %)
Description: as §1, §2

HCT-116 = assay: as above; type: cell-based; settings: Homo sapiens; 0.01 mM; HCT-116, Colon Cancer; read-out: Percentage growth inhibition (GI %)
Description: as §1, §2

NCI-H522 = assay: as above; type: cell-based; settings: Homo sapiens; 0.01 mM; NCI-H522, Non-Small Cell Lung Cancer; read-out: Percentage growth inhibition (GI %)
Description: as §1, §2

OVCAR-5 = assay: as above; type: cell-based; settings: Homo sapiens; 0.01 mM; OVCAR-5, Ovarian Cancer; read-out: Percentage growth inhibition (GI %)
Description: as §1, §2

IGROV1 = assay: as above; type: cell-based; settings: Homo sapiens, IGROV-1; 0.01 mM; IGROV1, Ovarian Cancer; read-out: Percentage growth inhibition (GI %)
Description: as §1, §2

M14 = assay: as above; type: cell-based; settings: Homo sapiens; 0.01 mM; M14, Melanoma; read-out: Percentage growth inhibition (GI %)
Description: as §1, §2

MDA-MB-231/ATCC = assay: as above; type: cell-based; settings: Homo sapiens, 0.01 mM, Breast Cancer, read-out: Percentage growth inhibition (GI %)
Description: as §1, §2

K-562 = assay: as above; type: cell-based; settings: Homo sapiens, K562; 0.01 mM; K-562, Leukemia; read-out: Percentage growth inhibition (GI %)
Description: as §1, §2

HOP-62 = assay: as above; type: cell-based; settings: Homo sapiens; 0.01 mM; HOP-62, Non-Small Cell Lung Cancer; read-out: Percentage growth inhibition (GI %)
Description: as §1, §2

NCI-H226 = assay: as above; type: cell-based; settings: Homo sapiens; 0.01 mM; NCI-H226, Non-Small Cell Lung Cancer; read-out: Percentage growth inhibition (GI %)
Description: as §1, §2

U251 = assay: as above; type: cell-based; settings: Homo sapiens, U-251; 0.01 mM; U251, CNS Cancer; read-out: Percentage growth inhibition (GI %)
Description: as §1, §2

HCC-2998 = assay: as above; type: cell-based; settings: Homo sapiens; 0.01 mM; HCC-2998, Colon Cancer; read-out: Percentage growth inhibition (GI %)
Description: as §1, §2

O=C(Cn1c(-c2ccc(O)cc2)nc(-c2ccccc2)c1-c1ccccc1)N/N=C/c1ccc(C(=O)O)cc1 [AE21, 4-((2-(2-(2-(4-hydroxyphenyl)-4,5-diphenyl-1H-imidazol-1-yl)acetyl)hydrazono)methyl)benzoic acid]
melting point: 220 to 222 °C | inhibition at 10 µM (BT-549): 11.9% | inhibition at 10 µM (NCI-H460): 82.4% | inhibition at 10 µM (SK-MEL-5): 8.04% | inhibition at 10 µM (NCI-H23): 4.14% | inhibition at 10 µM (EKVX): 32.1% | inhibition at 10 µM (KM12): 16.2% | inhibition at 10 µM (SF-268): 11.7% | inhibition at 10 µM (T-47D): 22.7% | inhibition at 10 µM (HCT-15): 51.7% | inhibition at 10 µM (RPMI-8226): 21.4% | inhibition at 10 µM (HL-60(TB)): 53.6% | inhibition at 10 µM (HT29): 55.4% | inhibition at 10 µM (MCF7): 81.1% | inhibition at 10 µM (OVCAR-8): 49% | inhibition at 10 µM (PC-3): 43.2% | inhibition at 10 µM (UACC-257): 2.54% | inhibition at 10 µM (SF-295): 29.4% | inhibition at 10 µM (SN12C): 47.8% | inhibition at 10 µM (MOLT-4): 70.1% | inhibition at 10 µM (SNB-75): 13.8% | inhibition at 10 µM (CAKI-1): 8.34% | inhibition at 10 µM (ACHN): 57.2% | inhibition at 10 µM (A549/ATCC): 64.9% | inhibition at 10 µM (NCI/ADR-RES): 2.67% | inhibition at 10 µM (HS 578T): 22.5% | inhibition at 10 µM (LOX IMVI): 33.4% | inhibition at 10 µM (OVCAR-4): 15% | inhibition at 10 µM (MDA-MB-435): 16.6% | inhibition at 10 µM (SF-539): 3.59% | inhibition at 10 µM (SW-620): 67.6% | inhibition at 10 µM (UO-31): 12.8% | inhibition at 10 µM (CCRF-CEM): 78.4% | inhibition at 10 µM (DU-145): 43% | inhibition at 10 µM (HCT-116): 50.7% | inhibition at 10 µM (NCI-H522): 35.3% | inhibition at 10 µM (OVCAR-5): 11.7% | inhibition at 10 µM (IGROV1): 4.51% | inhibition at 10 µM (M14): 16.5% | inhibition at 10 µM (MDA-MB-231/ATCC): 25.6% | inhibition at 10 µM (K-562): 44.7% | inhibition at 10 µM (HOP-62): 7.6% | inhibition at 10 µM (NCI-H226): 11.4% | inhibition at 10 µM (U251): 48.5% | inhibition at 10 µM (HCC-2998): 6.33%

— patent publication US11932608B1, “4-((2-(2-(2-(4-hydroxyphenyl)-4,5-diphenyl-1H-imidazol-1-yl)acetyl)hydrazono)methyl)benzoic acid as an anticancer compound” (KING FAISAL UNIVERSITY, priority 2023, dated 2024)
